The test system of one assay is Pseudomonas aeruginosa. Briefly: MIC summary, 600 strains of Pseudomonas aeruginosa (Example 8). The following applies: n = 600 strains; cmpd 1 and SUL each at 4 μg/mL where present.
Assay [1] deals with A. baumannii. Briefly: MIC by broth microdilution (CLSI), panel of 60 A. baumannii clinical isolates (Example 1). To be noted: Acinetobacter baumannii.
The test system of a further assay is Acinetobacter baumannii. Briefly: MIC summary, 600 strains of Acinetobacter baumannii (Example 8). The following applies: n = 600 strains; cmpd 1 and SUL each at 4 μg/mL where present.
Assay [2] deals with A. baumannii. Briefly: MIC90 of common antibiotics+compound 1, 196 contemporary clinical isolates of A. baumannii (Example 4). To be noted: B-lactam + Cmpd 1 (4 μg/mL).
The subject of assay [3] is A. baumannii. Briefly: MIC of sulbactam+compound 1 versus Unasyn®+compound 1 (Example 2). To be noted: equivalent total amount of sulbactam in both combinations; FIG. 2.
The next assay relates to B. pseudomallei K96243. In kind it is in vivo, Burkholderia pseudomallei. To be noted: Balb/c mice, lethal intranasal challenge; therapy from 4 hours post challenge for six consecutive days; FIG. 5.

The MIC is the smallest concentration in the dilution series that meets the test's criterion for growth inhibition.

Molecules are shown by their SMILES. Values after ≈ are worked out from the molar mass of the structure shown. Some results are limits rather than exact numbers.

As to `C[C@@H](O)[C@H]1C(=O)N2C(C(=O)O)=C(S[C@@H]3CN[C@H](C(=O)N(C)C)C3)[C@H](C)[C@H]12` [Meropenem, meropenem], the values for the MIC50 in the assay on Pseudomonas aeruginosa, with A. baumannii [1] and in the assay on Acinetobacter baumannii were 0.5, 16 µg/mL (≈ 41.7 µM) and above 8, respectively. The MIC90 is above 8 against Pseudomonas aeruginosa, 32 µg/mL (≈ 83.4 µM) against A. baumannii [1], above 8 against Acinetobacter baumannii and 16 µg/mL in the assay on A. baumannii [2]. The MIC is 1 µg/mL (≈ 2.61 µM) with A. baumannii [1] (strain ARC593, OXA-98); 0.25 µg/mL (≈ 0.652 µM) in the assay on A. baumannii [1] (strain ARC2058, OXA-95); 2 µg/mL (≈ 5.22 µM) with A. baumannii [1] (strain ARC2461, OXA-66, TEM-1); 4 µg/mL (≈ 10.4 µM) in the assay with A. baumannii [1] (strain ARC2462, TEM-1, OXA-66); 8 µg/mL (≈ 20.9 µM) against A. baumannii [1] (strain ARC2598, OXA*, TEM-1, OXA-113); above 32 µg/mL with A. baumannii [1] (strain ARC2635, OXA-65, OXA-40, TEM-1). Besides, the MIC in the assay with A. baumannii [1] (strain ARC2636, OXA-65, OXA-40, TEM-1) was above 32 µg/mL; against A. baumannii [1] (strain ARC2674, SHV-5, OXA-113), 8 µg/mL (≈ 20.9 µM); in the assay with A. baumannii [1] (strain ARC2675, SHV-5, OXA-113), above 32 µg/mL; in the assay with A. baumannii [1] (strain ARC2681, OXA-40, TEM-1, OXA-132), 32 µg/mL (≈ 83.4 µM); against A. baumannii [1] (strain ARC2682, SHV-5, OXA-113), 32 µg/mL (≈ 83.4 µM); with A. baumannii [1] (strain ARC2777, OXA-172, TEM-1), 32 µg/mL (≈ 83.4 µM). The MIC was above 32 µg/mL against A. baumannii [1] (strain ARC2778, OXA-40, TEM-1, OXA-65); 16 µg/mL (≈ 41.7 µM) in the assay on A. baumannii [1] (strain ARC2779 (A. baumannii/calcoaceticus complex), OXA-2, VIM-2); 32 µg/mL (≈ 83.4 µM) in the assay with A. baumannii [1] (strain ARC2780 (A. baumannii/calcoaceticus complex), OXA*, OXA-2, IMP-1); 16 µg/mL (≈ 41.7 µM) in the assay with A. baumannii [1] (strain ARC2782, OXA-66, OXA-23, TEM-1, PER-1); 1 µg/mL (≈ 2.61 µM) with A. baumannii [1] (strain ARC2788, OXA-65, TEM-1); 32 µg/mL (≈ 83.4 µM) in the assay with A. baumannii [1] (strain ARC3484, TEM-1, OXA-23, OXA-64). Also, the MIC against A. baumannii [1] (strain ARC3485, OXA-82) is 16 µg/mL (≈ 41.7 µM); in the assay with A. baumannii [1] (strain ARC3486, OXA-72, OXA-66, TEM-1), above 32 µg/mL; in the assay with A. baumannii [1] (strain ARC3487, OXA-20, OXA-58, OXA-66), 8 µg/mL (≈ 20.9 µM); with A. baumannii [1] (strain ARC3488, OXA*, OXA-68), 4 µg/mL (≈ 10.4 µM); in the assay with A. baumannii [1] (strain ARC3489, OXA*, OXA-68), 4 µg/mL (≈ 10.4 µM); against A. baumannii [1] (strain ARC3490, TEM-1+, PSE-2, OXA-69), 0.5 µg/mL (≈ 1.3 µM). The MIC is 2 µg/mL (≈ 5.22 µM) with A. baumannii [1] (strain ARC3491 (A. baumannii/calcoaceticus complex), OXA-215); above 32 µg/mL against A. baumannii [1] (strain ARC3492, OXA-40, OXA-132, TEM-1); above 32 µg/mL with A. baumannii [1] (strain ARC3493, OXA-40, OXA-66); 0.25 µg/mL (≈ 0.652 µM) against A. baumannii [1] (strain ARC3494, OXA-65); above 32 µg/mL with A. baumannii [1] (strain ARC3495, OXA-40, OXA-109); 32 µg/mL (≈ 83.4 µM) against A. baumannii [1] (strain ARC3513, TEM-1, OXA-23, OXA-65). For the same molecule, the MIC was 4 µg/mL (≈ 10.4 µM) in the assay on A. baumannii [1] (strain ARC3515, OXA-64, OXA-58); 2 µg/mL (≈ 5.22 µM) in the assay with A. baumannii [1] (strain ARC3657, OXA-130); 32 µg/mL (≈ 83.4 µM) against A. baumannii [1] (strain ARC3658, OXA-66, PER-1, TEM-1, OXA-23); 8 µg/mL (≈ 20.9 µM) in the assay with A. baumannii [1] (strain ARC3659, OXA-23, OXA*); above 32 µg/mL against A. baumannii [1] (strain ARC3882, OXA-23, NDM-1, OXA-10*); above 32 µg/mL with A. baumannii [1] (strain ARC5073, OXA-23, TEM-1, OXA-64, PER-1). Besides, the MIC against A. baumannii [1] (strain ARC5074, GES*, TEM-1, OXA-51) is 8 µg/mL (≈ 20.9 µM); against A. baumannii [1] (strain ARC5075, SHV-5, OXA-113), 32 µg/mL (≈ 83.4 µM); against A. baumannii [1] (strain ARC5076, TEM-1, OXA-23, OXA-66) it was 32 µg/mL (≈ 83.4 µM); in the assay on A. baumannii [1] (strain ARC5077, OXA*, OXA-72) it was above 32 µg/mL; in the assay with A. baumannii [1] (strain ARC5079, OXA-72, OXA-65), above 32 µg/mL; in the assay on A. baumannii [1] (strain ARC5080, OXA-71, OXA-40), above 32 µg/mL. Also, the MIC was 16 µg/mL (≈ 41.7 µM) in the assay with A. baumannii [1] (strain ARC5081, OXA-94, OXA-23); above 32 µg/mL with A. baumannii [1] (strain ARC5082, OXA-66, OXA-23); 16 µg/mL (≈ 41.7 µM) against A. baumannii [1] (strain ARC5083, OXA-66, OXA-23); above 32 µg/mL against A. baumannii [1] (strain ARC5084, IMP-4(B), OXA-58, OXA-65); 8 µg/mL (≈ 20.9 µM) against A. baumannii [1] (strain ARC5085, OXA*, TEM-1); above 32 µg/mL against A. baumannii [1] (strain ARC5086, OXA*, TEM-1, OXA-72, OXA-66). Moreover, the MIC is 16 µg/mL (≈ 41.7 µM) in the assay with A. baumannii [1] (strain ARC5087, OXA-66, OXA-23); 8 µg/mL (≈ 20.9 µM) with A. baumannii [1] (strain ARC5088, OXA-20, OXA-58, OXA-66); 32 µg/mL (≈ 83.4 µM) against A. baumannii [1] (strain ARC5089, PER*, TEM-1, OXA-23, OXA-66); 32 µg/mL (≈ 83.4 µM) against A. baumannii [1] (strain ARC5091, OXA-82, OXA-23); 16 µg/mL (≈ 41.7 µM) in the assay on A. baumannii [1] (strain ARC5092, OXA-23, OXA-64). Moreover, in the assay on Acinetobacter baumannii, the “MIC Max” value was above 8. Also, the “MIC Min” value with Acinetobacter baumannii amounted to 0.0599.

As to `CC1(C)S[C@@H]2[C@H](NC(=O)[C@H](N)c3ccccc3)C(=O)N2[C@H]1C(=O)O` [ampicillin], in the assay with A. baumannii [3], the “effect of ampicillin on efficacy (MIC of Unasyn®+compound 1 versus sulbactam+compound 1)” value is given as “no effect on the efficacy”.

`C[C@H]1c2cccc(O)c2C(=O)C2=C(O)[C@]3(O)C(=O)C(C(N)=O)=C(O)[C@@H](N(C)C)[C@@H]3[C@@H](O)[C@@H]21` [doxycycline]: the survivorship in the assay with B. pseudomallei K96243 is listed as 40%.

The values are drawn from patent publication US10376499B2, “Combination therapy for treatment of resistant bacterial infections” (priority 2014, dated 2019).
